Measured values taken from patent publication US20210215714A1, “COMPLEMENT ALTERNATIVE PATHWAY-ASSOCIATED NEPHROPATHY BIOMARKERS” (Achillion Pharmaceuticals, Inc., priority 2018, published 2021).

Columns and labels:
AP activity = experiment: PNH erythrocyte hemolysis (AP activity in vitro); assay type: cell-based
Bb = experiment: Phase 2a study: Bb levels in plasma; assay type: in vivo, human; settings: 14-day treatment, patients A-F
Method: Systemic complement proteins were measured in serum and plasma including serum Ba, plasma Bb, serum C3, serum Factor D, serum C4, and % Fragment C3.

C3c = experiment: Phase 2a study: urinary C3c (Hycult Human C3c Elisa Kit);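 note: urine from C3 glomerulopathy or IC-MPGN patients, C3c quantified by sandwich ELISA with absorbance read at 450 nm against a human C3c standard curve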
Method: To measure urinary C3c production, patient urine samples were tested utilizing the Hycult Biotech Human C3c Elisa Kit (HK368) for the quantitation of C3c in urine. […] Urine samples were thawed and centrifuged at 15,000 rpm for one minute. The supernatant was transferred to a fresh tube and diluted with C3c dilution buffer. Samples and standards were added to microtiter wells coated with antibodies recognizing human C3c and incubated at 1 hour at 15-25° C. Following incubation, the wells were washed 4 times with Wash Solution, with an incubation period of 1 minute each time. A biotinylated tracer antibody was added and used to bind to the captured human C3c. Streptavidin-peroxidase conjugate was then added to bind to the biotinylated tracer antibody. Tetramethylbenzidine (TMB) was then added to the Streptavidin-peroxidase conjugate. The enzyme reaction was stopped by the addition of oxalic acid. The absorbance at 450 nm was measured with a spectrophotometer. A standard curve was obtained by plotting the absorbance (linear) versus the corresponding concentrations of the human C3c standards (log). The human C3c concentration of samples, which are run concurrently with the standards, were determined from the standard curve.

With `CC(=O)c1nn(CC(=O)N2C[C@H](F)C[C@H]2C(=O)Nc2cccc(Br)n2)c2ccc(-c3cnc(C)nc3)cc12` [Compound 1, (2S,4R)-1-(2-(3-acetyl-5-(2-methylpyrimidin-5-yl)-1H-indazol-1-yl)acetyl)-N-(6-bromopyridin-2-yl)-4-fluoropyrrolidine-2-carboxamide] the IC50 (AP activity) was 14 nM, the “Plasma Bb” value (Bb) was “reduced” and the uC3c (C3c; Patient A, 100 mg TID, Day 1 predose) was 25.4 ng/mL. It also gave a uC3c (C3c; Patient A, 100 mg TID, Day 4) of 15.2 ng/mL, a uC3c (C3c; Patient A, 100 mg TID, Day 7-0 Hour) of 7.1 ng/mL and a uC3c (C3c; Patient A, 100 mg TID, Day 10) of 9.9 ng/mL. The uC3c (C3c; Patient A, 100 mg TID, Day 14) was 3.6 ng/mL, the uC3c (C3c; Patient A, 100 mg TID, Day 15 Taper) was 6.8 ng/mL and the uC3c (C3c; Patient A, 100 mg TID, Day 16 Taper) was 4.1 ng/mL. For the same molecule, the uC3c (C3c; Patient A, 100 mg TID, Day 17 Taper) was 8.5 ng/mL, the uC3c (C3c; Patient A, 100 mg TID, Day 21) was 7.8 ng/mL and the uC3c (C3c; Patient A, 100 mg TID, Day 24) was 11.4 ng/mL. It also gave a uC3c (C3c; Patient A, 100 mg TID, Day 28) of 15.6 ng/mL, a uC3c (C3c; Patient A, 100 mg TID, Day 49) of 32.8 ng/mL and a uC3c (C3c; Patient B, 100 mg TID, Day 1 predose) of 771.1 ng/mL. It also gave a uC3c (C3c; Patient B, 100 mg TID, Day 4) of 369.0 ng/mL, a uC3c (C3c; Patient B, 100 mg TID, Day 7-0 Hour) of 289.2 ng/mL and a uC3c (C3c; Patient B, 100 mg TID, Day 10) of 256.0 ng/mL. For the same molecule, the uC3c (C3c; Patient B, 100 mg TID, Day 14) was 462.7 ng/mL, the uC3c (C3c; Patient B, 100 mg TID, Day 15 Taper) was 682.8 ng/mL and the uC3c (C3c; Patient B, 100 mg TID, Day 16 Taper) was 534.1 ng/mL. It also gave a uC3c (C3c; Patient B, 100 mg TID, Day 17 Taper) of 290.8 ng/mL, a uC3c (C3c; Patient B, 100 mg TID, Day 21) of 513.5 ng/mL and a uC3c (C3c; Patient B, 100 mg TID, Day 24) of 744.1 ng/mL. The uC3c (C3c; Patient B, 100 mg TID, Day 28) was 285.3 ng/mL, the uC3c (C3c; Patient B, 100 mg TID, Day 49) was greater than 1000 ng/mL and the uC3c (C3c; Patient C, 200 mg TID, Day 1 predose) was less than 1.6 ng/mL. For the same molecule, the uC3c (C3c; Patient C, 200 mg TID, Day 4) was less than 1.6 ng/mL, the uC3c (C3c; Patient C, 200 mg TID, Day 7-0 Hour) was less than 1.6 ng/mL and the uC3c (C3c; Patient C, 200 mg TID, Day 10) was less than 1.6 ng/mL. It also gave a uC3c (C3c; Patient C, 200 mg TID, Day 14) of less than 1.6 ng/mL, a uC3c (C3c; Patient C, 200 mg TID, Day 15 Taper) of less than 1.6 ng/mL and a uC3c (C3c; Patient C, 200 mg TID, Day 17 Taper) of less than 1.6 ng/mL. It also gave a uC3c (C3c; Patient C, 200 mg TID, Day 21) of less than 1.6 ng/mL, a uC3c (C3c; Patient C, 200 mg TID, Day 24) of 2.1 ng/mL and a uC3c (C3c; Patient C, 200 mg TID, Day 28) of less than 1.6 ng/mL. For the same molecule, the uC3c (C3c; Patient C, 200 mg TID, Day 49) was less than 1.6 ng/mL, the uC3c (C3c; Patient D, 200 mg TID, Day 1 predose) was 8.8 ng/mL and the uC3c (C3c; Patient D, 200 mg TID, Day 4) was 5.3 ng/mL. For the same molecule, the uC3c (C3c; Patient D, 200 mg TID, Day 7-0 Hour) was less than 1.6 ng/mL, the uC3c (C3c; Patient D, 200 mg TID, Day 10) was less than 1.6 ng/mL and the uC3c (C3c; Patient D, 200 mg TID, Day 14) was 3.7 ng/mL. For the same molecule, the uC3c (C3c; Patient D, 200 mg TID, Day 15 Taper) was 3.6 ng/mL, the uC3c (C3c; Patient D, 200 mg TID, Day 17 Taper) was 4.8 ng/mL and the uC3c (C3c; Patient D, 200 mg TID, Day 21) was 5.8 ng/mL. It also gave a uC3c (C3c; Patient D, 200 mg TID, Day 24) of 5.1 ng/mL, a uC3c (C3c; Patient D, 200 mg TID, Day 28) of 5.1 ng/mL and a uC3c (C3c; Patient D, 200 mg TID, Day 49) of 7.0 ng/mL. For the same molecule, the uC3c (C3c; Patient E, 200 mg TID, Day 1 predose) was 159.6 ng/mL, the uC3c (C3c; Patient E, 200 mg TID, Day 4) was 137.7 ng/mL and the uC3c (C3c; Patient E, 200 mg TID, Day 7-0 Hour) was 168.2 ng/mL. For the same molecule, the uC3c (C3c; Patient E, 200 mg TID, Day 10) was 123.2 ng/mL, the uC3c (C3c; Patient E, 200 mg TID, Day 14) was 64.4 ng/mL and the uC3c (C3c; Patient E, 200 mg TID, Day 15 Taper) was 39.7 ng/mL. The uC3c (C3c; Patient E, 200 mg TID, Day 16 Taper) was 46.8 ng/mL, the uC3c (C3c; Patient E, 200 mg TID, Day 17 Taper) was 107.0 ng/mL and the uC3c (C3c; Patient E, 200 mg TID, Day 21) was 41.2 ng/mL. For the same molecule, the uC3c (C3c; Patient E, 200 mg TID, Day 24) was 89.6 ng/mL, the uC3c (C3c; Patient E, 200 mg TID, Day 28) was 97.8 ng/mL and the uC3c (C3c; Patient E, 200 mg TID, Day 49) was 120.3 ng/mL. It also gave a uC3c (C3c; Patient F, 200 mg TID, Day 1 predose) of 216.3 ng/mL, a uC3c (C3c; Patient F, 200 mg TID, Day 4) of 63.0 ng/mL and a uC3c (C3c; Patient F, 200 mg TID, Day 7-0 Hour) of 25.8 ng/mL. For the same molecule, the uC3c (C3c; Patient F, 200 mg TID, Day 10) was 43.9 ng/mL, the uC3c (C3c; Patient F, 200 mg TID, Day 14) was 31.8 ng/mL and the uC3c (C3c; Patient F, 200 mg TID, Day 15 Taper) was 24.2 ng/mL. It also gave a uC3c (C3c; Patient F, 200 mg TID, Day 16 Taper) of 30.0 ng/mL, a uC3c (C3c; Patient F, 200 mg TID, Day 17 Taper) of 32.4 ng/mL and a uC3c (C3c; Patient F, 200 mg TID, Day 21) of 64.0 ng/mL. It also gave a uC3c (C3c; Patient F, 200 mg TID, Day 24) of 34.4 ng/mL, a uC3c (C3c; Patient F, 200 mg TID, Day 28) of 41.5 ng/mL and a uC3c (C3c; Patient F, 200 mg TID, Day 49) of 154.5 ng/mL. The “Urinary C3c levels” value (C3c; two-week treatment) was “reduced significantly” and the “Urinary C3c levels normalized to urinary creatinine or albumin” value (C3c; two-week treatment) was “reduced significantly”.
